“And” between values parts separate entries of the source, which are not always exact repeats. Equal entries are not always repeated. Starred links: 1 amine or outer side, 2 acyl side, 3 side chain; linkers in the order of their positions; H or OH if unused. Positions of bridges follow the written chain, without caps; N, C: chain ends. Non-standard residues stand in square brackets, D forms with d. Residues, ends and D or L forms follow the SMILES beside them. *: point of attachment. Orn(4R-OH,5R-OCH2CH2NMe3+) = C[N+](C)(C)CCO[C@@H](N[*:3])[C@H](O)C[C@H](N[*:1])C(=O)[*:2]; pTerphenylCO(4''-OnC5H11) = CCCCCOc1ccc(-c2ccc(-c3ccc(C(=O)*)cc3)cc2)cc1; hTyr(3S-OH,4S-OH) = N[C@H](C(=O)O)[C@H](O)[C@@H](O)c1ccc(O)cc1; Pro(3S-OH,4S-Me) = C[C@H]1CN[C@H](C(=O)O)[C@H]1O; Hyp = O=C(O)[C@@H]1C[C@@H](O)CN1
Tests used:
[1] = system: A. fumigatus ATCC 13073; experiment: Disseminated aspergillosis, treatment, neutropenic ICR mice (Example 17); type: in vivo, Aspergillus fumigatus
Source text: Survival monitored for ≥10 days.

[2] = Pharmacokinetic profile in female rats, 10 mg/kg IV and SC; settings: rat, in vivo
Source text: The pharmacokinetic (PK) profile of CD101 in female rats (three per group) was characterized.

[3] = Protein binding by ultracentrifugation, mouse plasma; type: in vitro ADME; settings: read-out: percent of bound CD101, mean (protein binding) (converted)
Experimental: Concentrations in plasma ranging from 7 to 60 μg/mL were tested and resulting samples were analyzed by LC-MS/MS.

[4] = Single-dose plasma pharmacokinetics in mice, IP; type: in vivo, mouse; settings: IP doses of 1, 4, 16, and 64 mg/kg
Experimental: Plasma from groups of three mice per time point (1, 3, 6, 12, 24, 48, and 72-h) was collected. The plasma drug concentrations were determined by liquid chromatography-tandem mass spectrometry. A noncompartmental model was used in the pharmacokinetic analysis. Elimination half-life was calculated by nonlinear least-squares technique. The area under the concentration-time curve (AUC) was calculated by the trapezoidal rule. Pharmacokinetic exposures for doses not directly measured in the PK study were estimated by linear extrapolation for higher and lower dose levels and by interpolation for dose levels within the dose range studied given the linear PK results.

[5] = system: Candida albicans ATCC SC5314; experiment: Prophylaxis, neutropenic ICR mouse candidiasis model, kidney CFU; settings: for clearance of kidney CFU: 24 hours post-challenge
[6] = In vivo tissue distribution in SD rats after 5 mg/kg IV; settings: Sprague-Dawley, rat
Experimental: The in vitro activity of CD101 was evaluated against 153 A. fumigatus clinical isolates collected as part of the 2014 and 2015 JMI international SENTRY surveillance program. Susceptibility was determined by measuring the minimal effective concentration (MEC) values in accordance with CLSI broth microdilution guidelines (M38-A2). In vivo tissue distribution of CD101 in SD rats (N=3/time up to 5 d) after a 5 mg/kg IV CD101 dose. Plasma/tissue concentrations were measured by LC-MS/MS.

[7] = system: C. albicans; experiment: Neutropenic murine disseminated candidiasis model, PK/PD targets, C. albicans
[8] = system: C. parapsilosis; experiment: In vitro susceptibility testing (CLSI M27-A3), C. parapsilosis; type: cell-based, Candida parapsilosis; settings: Lodderomyces parapsilosis, 24 h
Experimental: Ten clinical Candida strains were used for the in vivo treatment studies, including four C. albicans, three C. glabrata, and three C. parapsilosis strains (Table 15). This group was selected to encompass phenotypic variability in susceptibility to triazoles and echinocandins and based on similar fitness in the animal model as defined by the amount of growth in control animals over 24 h. The organisms were maintained, grown, and quantified on Sabouraud's dextrose agar (SDA) plates.
In vitro susceptibility testing. All isolates were tested in accordance with the standards in CLSI document M27-A3. The MICs were determined visually after 24 h of incubation as the lowest concentration of drug that causes a significant diminution (50%) of growth compared to controls. MICs were determined on three separate occasions in duplicate.

[9] = system: Candida albicans ATCC SC5314; experiment: MIC used for free drug plasma concentration over MIC, candidiasis model; type: cell-based
[10] = system: Candida albicans (R357); experiment: Neutropenic mouse model of azole-resistant candidiasis, kidney CFU; type: in vivo; settings: CD101 3 mg/kg single IP dose, 72 hours
[11] = C. albicans, Median of 4 strains

SMILES: CCCCCOc1ccc(-c2ccc(-c3ccc(C(=O)N[C@H]4C[C@@H](O)[C@@H](OCC[N+](C)(C)C)NC(=O)[C@@H]5[C@@H](O)[C@@H](C)CN5C(=O)[C@H]([C@@H](C)O)NC(=O)[C@H]([C@H](O)[C@@H](O)c5ccc(O)cc5)NC(=O)[C@@H]5C[C@@H](O)CN5C(=O)[C@H]([C@@H](C)O)NC4=O)cc3)cc2)cc1 [CD101] ({pTerphenylCO(4''-OnC5H11)}-[Orn(4R-OH,5R-OCH2CH2NMe3+)]T[Hyp][hTyr(3S-OH,4S-OH)]T[Pro(3S-OH,4S-Me)]; lactam 1-C)
- survival compared to vehicle ([1]; CD101 IV/IP 0.2, 1, or 5 mg/kg BID×5d): significant increase in survival compared to vehicle
- survival ([1]; single 2 mg/kg vs 0.2 mg/kg BID×5d): Survival was comparable
- Tmax ([2]; SC administration): 8 to 24 h
- half-life ([2]; SC, read-out: t½ (converted)): 48 h
- bioavailability ([2]; sc): 97%
- fraction unbound at 2.5 hr [3]: 0.008
- elimination half-life [4]: 29 to 41 h
- half-life ([4]; mouse, plasma, ip, 64 mg/kg, read-out: elimination half-life): 28 to 41 h
- AUC(0-inf) ([4]; mouse, plasma): 93.2 to 40500 µg·h/mL
- Cmax ([4]; mouse, plasma, read-out: Peak (Cmax) levels): 2600 to 76700 ng/mL
- clearance of kidney CFU ([5]; CD101 SC 10 mg/kg at Day −3 and Day −1): Complete clearance was observed in all animals
- clearance of kidney CFU ([5]; CD101 SC 20 mg/kg on Day −3): all but one animal
- kidney CFU burden ([5]; CD101 SC 20 mg/kg, Day −5, −3 or −1): reduced CFU burden regardless of prophylactic treatment day
- kidney CFU ([5]; CD101 SC 5 or 10 mg/kg at Day −3 and Day −1): significant decrease in CFU
- Kp ([6]; liver, kidney, lung, spleen, read-out: tissue/plasma exposure ratios): ~4
- half-life ([6]; plasma, read-out: t1/2 in plasma (converted)): 39 h
- half-life ([6]; tissues (all tissues studied), read-out: t1/2 in all tissues studied): 40 to 77 h
- 1 log kill 24 h Ave Free drug AUC/MIC ([7]; C. albicans 98-17): 3.92
- 1 log kill dose ([7]; C. albicans 98-17): 2.73 mg/kg
- 1 log kill free drug AUC0-168h/MIC ([7]; C. albicans 98-17): 27.47
- 1 log kill total drug AUC0-168h/MIC ([7]; C. albicans 98-17): 3433.40
- Stasis 24 h Ave free drug AUC/MIC ([7]; C. albicans 98-17): 2.19
- Stasis free drug AUC0-168h/MIC ([7]; C. albicans 98-17): 15.35
- Stasis total drug AUC0-168h/MIC ([7]; C. albicans 98-17): 1918.43
- Static dose ([7]; C. albicans 98-17): 1.34 mg/kg
- 1 log kill 24 h Ave Free drug AUC/MIC ([7]; C. albicans 98-210): 6.72
- 1 log kill dose ([7]; C. albicans 98-210): 2.28 mg/kg
- 1 log kill free drug AUC0-168h/MIC ([7]; C. albicans 98-210): 47.01
- 1 log kill total drug AUC0-168h/MIC ([7]; C. albicans 98-210): 5875.95
- Stasis 24 h Ave free drug AUC/MIC ([7]; C. albicans 98-210): 3.70
- Stasis free drug AUC0-168h/MIC ([7]; C. albicans 98-210): 25.93
- Stasis total drug AUC0-168h/MIC ([7]; C. albicans 98-210): 3241.65
- Static dose ([7]; C. albicans 98-210): 1.06 mg/kg
- 1 log kill 24 h Ave Free drug AUC/MIC ([7]; C. albicans 580): 3.05
- 1 log kill dose ([7]; C. albicans 580): 2.03 mg/kg
- 1 log kill free drug AUC0-168h/MIC ([7]; C. albicans 580): 21.34
- 1 log kill total drug AUC0-168h/MIC ([7]; C. albicans 580): 2667.21
- Stasis 24 h Ave free drug AUC/MIC ([7]; C. albicans 580): 2.02
- Stasis free drug AUC0-168h/MIC ([7]; C. albicans 580): 14.15
- Stasis total drug AUC0-168h/MIC ([7]; C. albicans 580): 1769.30
- Static dose ([7]; C. albicans 580): 1.20 mg/kg
- 1 log kill 24 h Ave Free drug AUC/MIC ([7]; C. albicans K-1): 6.86
- 1 log kill dose ([7]; C. albicans K-1): 5.26 mg/kg
- 1 log kill free drug AUC0-168h/MIC ([7]; C. albicans K-1): 48.05
- 1 log kill total drug AUC0-168h/MIC ([7]; C. albicans K-1): 6005.95
- Stasis 24 h Ave free drug AUC/MIC ([7]; C. albicans K-1): 3.65
- Stasis free drug AUC0-168h/MIC ([7]; C. albicans K-1): 25.58
- Stasis total drug AUC0-168h/MIC ([7]; C. albicans K-1): 3197.16
- Static dose ([7]; C. albicans K-1): 2.52 mg/kg
- 1 log kill 24 h Ave Free drug AUC/MIC ([7]; C. albicans, Mean of 4 strains): 5.14
- 1 log kill dose ([7]; C. albicans, Mean of 4 strains): 3.08 mg/kg
- 1 log kill free drug AUC0-168h/MIC ([7]; C. albicans, Mean of 4 strains): 35.97
- 1 log kill total drug AUC0-168h/MIC ([7]; C. albicans, Mean of 4 strains): 4495.63
- Stasis 24 h Ave free drug AUC/MIC ([7]; C. albicans, Mean of 4 strains): 2.89
- Stasis free drug AUC0-168h/MIC ([7]; C. albicans, Mean of 4 strains): 20.25
- Stasis total drug AUC0-168h/MIC ([7]; C. albicans, Mean of 4 strains): 2531.64
- Static dose ([7]; C. albicans, Mean of 4 strains): 1.53 mg/kg
- 1 log kill 24 h Ave Free drug AUC/MIC [7, 11]: 5.32
- 1 log kill dose [7, 11]: 2.51 mg/kg
- 1 log kill free drug AUC0-168h/MIC [7, 11]: 37.24
- 1 log kill total drug AUC0-168h/MIC [7, 11]: 4654.68
- Stasis 24 h Ave free drug AUC/MIC [7, 11]: 2.92
- Stasis free drug AUC0-168h/MIC [7, 11]: 20.5 and 20.46
- Stasis total drug AUC0-168h/MIC [7, 11]: 2557.79
- Static dose [7, 11]: 1.27 mg/kg
- kill at high doses ([7]; C. albicans, a number of strains): > 2 log10
- MIC ([8]; C. parapsilosis 20423.072): 0.5 µg/mL
- MIC ([8]; C. parapsilosis 20477.048): 1 µg/mL
- MIC ([8]; C. parapsilosis 20519.069): 1 µg/mL
- MIC [9]: 0.03 µg/mL
- reduction in C. albicans CFU compared with vehicle [10]: > 3 log

From patent US20190307843A1, “SINGLE DOSE METHODS FOR PREVENTING AND TREATING FUNGAL INFECTIONS” (Cidara Therapeutics, Inc., priority 2016, published 2019)
